Consider 36 compounds from article PMC12883167 (Bioorganic & medicinal chemistry letters, 2019).

Numbered stars: 1 amine (or outer) side, 2 acyl side, 3 side chain; on linkers, the order of the positions; unused ones are H or OH. Square brackets hold non-standard residues; d marks the D form. Peptide text beside a SMILES is read from it. * marks the point of attachment. cisHyp = O=C(O)[C@@H]1C[C@H](O)CN1; Hyp = O=C(O)[C@@H]1C[C@@H](O)CN1; Chg = N[C@H](C(=O)O)C1CCCCC1; Phg = N[C@H](C(=O)O)c1ccccc1; Tle = CC(C)(C)[C@H](N)C(=O)O; NMeV = CN[C@H](C(=O)O)C(C)C; αMeP = C[C@@]1(C(=O)O)CCCN1; Pip = O=C(O)[C@@H]1CCCCN1; Ac6c = NC1(C(=O)O)CCCCC1; Ac5c = NC1(C(=O)O)CCCC1; Cbz = O=C(OCc1ccccc1)*; CO = O=C([*:1])[*:2]; Bz = O=C(c1ccccc1)*; NHPh = c1ccc(N*)cc1; CH2F = FC*

For test [1], the target named is T1, MALT1 protease (Homo sapiens, UniProt Q9UDY8).
T1 sequence (Q9UDY8 1-824): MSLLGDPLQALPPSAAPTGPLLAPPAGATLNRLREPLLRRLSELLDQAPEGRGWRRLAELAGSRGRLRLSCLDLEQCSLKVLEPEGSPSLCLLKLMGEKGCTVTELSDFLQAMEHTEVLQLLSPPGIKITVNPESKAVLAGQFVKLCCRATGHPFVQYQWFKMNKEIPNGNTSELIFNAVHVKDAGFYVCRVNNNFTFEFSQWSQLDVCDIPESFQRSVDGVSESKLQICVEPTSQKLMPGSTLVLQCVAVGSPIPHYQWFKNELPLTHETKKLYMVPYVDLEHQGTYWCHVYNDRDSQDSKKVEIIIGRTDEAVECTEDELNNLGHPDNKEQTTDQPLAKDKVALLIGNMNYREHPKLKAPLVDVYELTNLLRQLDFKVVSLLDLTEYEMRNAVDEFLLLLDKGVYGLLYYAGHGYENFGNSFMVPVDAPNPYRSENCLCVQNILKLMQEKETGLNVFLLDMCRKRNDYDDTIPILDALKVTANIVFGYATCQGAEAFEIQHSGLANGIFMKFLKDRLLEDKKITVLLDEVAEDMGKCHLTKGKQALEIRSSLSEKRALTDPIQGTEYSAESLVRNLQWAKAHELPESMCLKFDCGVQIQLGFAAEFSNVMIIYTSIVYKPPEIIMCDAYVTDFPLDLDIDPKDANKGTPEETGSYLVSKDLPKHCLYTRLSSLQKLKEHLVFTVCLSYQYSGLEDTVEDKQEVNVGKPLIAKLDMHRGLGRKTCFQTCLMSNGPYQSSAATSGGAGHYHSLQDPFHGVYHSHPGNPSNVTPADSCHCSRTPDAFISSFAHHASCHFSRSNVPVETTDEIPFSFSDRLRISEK
In kind it is cell-based. The note with it: Cell (Glo), GloSensor reporter, PMA/IO activated Raji cells.

The subject of test [2] is RelB cleavage (MALT1 protease activity) in OCI-Ly3 cells. As to the kind of experiment: Inhibition of RelB cleavage in OCI-Ly3 cells by Western blot. Format: cell-based. Particulars: at 20 μM. On the technique in general: A western blot detects proteins with antibodies after separation by electrophoresis.
Test [3] relates to OCI-Ly3 cells. As to the kind of experiment: OCI-Ly3 cell proliferation assay.

What is called IC50 is the point on the concentration scale where inhibition reaches its midpoint. Turning to `N=C(N)NCCC[C@H](NC(=O)[C@@H]1CCCN1C(=O)[C@@H](NC(=O)OCc1ccccc1)C1CCCCC1)C(=O)CF` [Compound 34] (Cbz-[Chg]-Pro-Arg-CH2F), the IC50 in test [1] worked out at 150 nM.
Consider `CC(C)[C@H](NC(=O)OCc1ccccc1)C(=O)N1C[C@@H](O)C[C@H]1C(=O)N[C@@H](CCCNC(=N)N)C(=O)CF` [Compound 42] (Cbz-Val-[cisHyp]-Arg-CH2F), for which, in test [1], inhibition was half-maximal at 239 nM (IC50).
Same read-out and setting: under `CC(C)[C@H](NC(=O)c1ccc(Br)cc1)C(=O)N1CC[C@H]1C(=O)N[C@@H](CCCNC(=N)N)C(=O)CF` [Compound 47] stands 219 nM.
Same read-out and setting: under `CC(C)[C@H](NC(=O)c1ccc(Br)cc1)C(=O)N1CCOC[C@H]1C(=O)N[C@@H](CCCNC(=N)N)C(=O)CF` [Compound 49] stands 174 nM; under `CC(C)[C@H](NC(=O)C1CCCCC1)C(=O)N1CCC[C@H]1C(=O)N[C@@H](CCCNC(=N)N)C(=O)CF` [Compound 28], 640 nM.
Still for that read-out and setting: under `N=C(N)NCCC[C@H](NC(=O)[C@@H]1C[C@@H](O)CN1C(=O)[C@@H](NC(=O)c1ccc(Br)cc1)C1CCCCC1)C(=O)CF` [Compound 53] stands 65 nM; under `CC(C)[C@H](NC(=O)OCc1ccccc1)C(=O)N1CCC[C@@]1(C)C(=O)N[C@@H](CCCNC(=N)N)C(=O)CF` [Compound 43] (Cbz-Val-[αMeP]-Arg-CH2F), 873 nM.
In turn, `CC(C)[C@H](NC(=O)c1ccc(Cl)cc1)C(=O)N1CCC[C@H]1C(=O)N[C@@H](CCCNC(=N)N)C(=O)CF` [Compound 23] returned an IC50 in test [1] of 180 nM.
On the same count and under the same terms, under `CC(C)[C@@H](C(=O)N1CCC[C@H]1C(=O)N[C@@H](CCCNC(=N)N)C(=O)CF)N(C)C(=O)OCc1ccccc1` [Compound 5] (Cbz-[NMeV]-Pro-Arg-CH2F) stands 3000 nM; under `CC(C)[C@H](NC(=O)OCc1ccccc1)C(=O)N[C@@H](CO)C(=O)N[C@@H](CCCNC(=N)N)C(=O)CF` [Compound 39], 149 nM; under `CC[C@H](C)[C@H](NC(=O)OCc1ccccc1)C(=O)N1CCC[C@H]1C(=O)N[C@@H](CCCNC(=N)N)C(=O)CF` [Compound 32] (Cbz-Ile-Pro-Arg-CH2F), 1860 nM.
Compound `N=C(N)NCCC[C@H](NC(=O)[C@H](CO)NC(=O)[C@@H](NC(=O)c1ccc(Br)cc1)C1CCCCC1)C(=O)CF` [Compound 52] came in with an IC50 in test [1] of 87 nM.
As to `N=C(N)NCCC[C@H](NC(=O)[C@@H]1CCCN1C(=O)[C@H](Cc1ccccc1)NC(=O)OCc1ccccc1)C(=O)CF` [Compound 33], in test [1], the IC50 came to 2030 nM.
The same measure, in the same setting: under `CC(C)[C@H](NC(=O)c1ccc(Br)cc1)C(=O)N1CCC[C@@H]1C(=O)N[C@@H](CCCNC(=N)N)C(=O)CF` [Compound 50] stands 17500 nM.
Same read-out and setting: under `CC(C)[C@H](NC(=O)Nc1ccc(Cl)cc1)C(=O)N1CCC[C@H]1C(=O)N[C@@H](CCCNC(=N)N)C(=O)CF` [Compound 30] stands 110 nM.
The same measure, in the same setting: under `CC(C)[C@H](NC(=O)c1ccc(Br)cc1)C(=O)N1C[C@H](O)C[C@H]1C(=O)N[C@@H](CCCNC(=N)N)C(=O)CF` [Compound 45] stands 85 nM.
`CC(C)[C@H](NC(=O)OCc1ccccc1)C(=O)N1CCCC[C@H]1C(=O)N[C@@H](CCCNC(=N)N)C(=O)CF` [Compound 40] (Cbz-Val-[Pip]-Arg-CH2F) returned an IC50 in test [1] of 144 nM.
The same measure, in the same setting: under `CC(C)[C@H](NC(=O)c1ccc(C#N)cc1)C(=O)N1CCC[C@H]1C(=O)N[C@@H](CCCNC(=N)N)C(=O)CF` [Compound 24] stands 710 nM.
Still for that read-out and setting: under `N=C(N)NCCC[C@H](NC(=O)[C@@H]1CCCN1C(=O)[C@@H](NC(=O)OCc1ccccc1)c1ccccc1)C(=O)CF` [Compound 36] (Cbz-[Phg]-Pro-Arg-CH2F) stands 1430 nM; under `CC(C)(C)[C@H](NC(=O)OCc1ccccc1)C(=O)N1CCC[C@H]1C(=O)N[C@@H](CCCNC(=N)N)C(=O)CF` [Compound 35] (Cbz-[Tle]-Pro-Arg-CH2F), 710 nM; under `CC(C)[C@H](NC(=O)OCc1ccccc1)C(=O)N1CCC[C@H]1C(=O)N[C@@H](CCCNC(=N)N)C(=O)CF` [Compound 4, Z-VPR-fmk] (Cbz-Val-Pro-Arg-CH2F), 1960 nM.
The same measure, in the same setting: under `CC(C)[C@H](NC(=O)OCc1ccccc1)C(=O)N1C[C@H](O)C[C@H]1C(=O)N[C@@H](CCCNC(=N)N)C(=O)CF` [Compound 41] (Cbz-Val-[Hyp]-Arg-CH2F) stands 209 nM; under `CC(C)[C@H](NC(=O)c1ccc(Br)cc1)C(=O)N1COC[C@H]1C(=O)N[C@@H](CCCNC(=N)N)C(=O)CF` [Compound 48], 77 nM; under `N=C(N)NCCC[C@H](NC(=O)[C@@H]1CCCN1C(=O)[C@@H](NC(=O)c1ccc(Br)cc1)C1CCCCC1)C(=O)CF` [Compound 51], 43 nM.
With `CC(C)[C@H](NC(=O)Nc1ccccc1)C(=O)N1CCC[C@H]1C(=O)N[C@@H](CCCNC(=N)N)C(=O)CF` [Compound 29] ({NHPh-CO}-Val-Pro-Arg-CH2F), it took 170 nM to reach half-maximal inhibition in test [1] (IC50).
`CC(C)c1ccc(C(=O)N[C@H](C(=O)N2CCC[C@H]2C(=O)N[C@@H](CCCNC(=N)N)C(=O)CF)C(C)C)cc1` [Compound 27] gave an IC50 in test [1] of 70 nM. Against the preceding compound, the IC50 is about 2.4-fold lower.
`CC(C)[C@H](NC(=O)OCc1ccccc1)C(=O)N[C@@H](CCCNC(=N)N)C(=O)N1CCC[C@H]1C(=O)N[C@@H](CCCNC(=N)N)C(=O)CF` [Z-VRPR-fmk, reference compound]: in test [2], the “inhibition of RelB cleavage” value is given as “partial inhibition”.
`CC(C)[C@H](NC(=O)c1ccc(C(F)(F)F)cc1)C(=O)N1CCC[C@H]1C(=O)N[C@@H](CCCNC(=N)N)C(=O)CF` [Compound 25] yielded an IC50 in test [1] of 230 nM.
As to `CC(C)[C@H](NC(=O)c1ccccc1Br)C(=O)N1CCC[C@H]1C(=O)N[C@@H](CCCNC(=N)N)C(=O)CF` [Compound 20], half-maximal inhibition in test [1] (IC50) required 1110 nM.
On the same count and under the same terms, under `N=C(N)NCCC[C@H](NC(=O)[C@@H]1CCCN1C(=O)C1(NC(=O)OCc2ccccc2)CCCCC1)C(=O)CF` [Compound 37] (Cbz-[Ac6c]-Pro-Arg-CH2F) stands 6000 nM.
In test [1], `COc1ccc(C(=O)N[C@H](C(=O)N2CCC[C@H]2C(=O)N[C@@H](CCCNC(=N)N)C(=O)CF)C(C)C)cc1` [Compound 26] returned an IC50 of 800 nM.
Still for that read-out and setting: under `CC(C)[C@H](NC(=O)c1cccc(Br)c1)C(=O)N1CCC[C@H]1C(=O)N[C@@H](CCCNC(=N)N)C(=O)CF` [Compound 21] stands 180 nM.
`CC(C)C[C@H](NC(=O)OCc1ccccc1)C(=O)N1CCC[C@H]1C(=O)N[C@@H](CCCNC(=N)N)C(=O)CF` [Compound 31] (Cbz-Leu-Pro-Arg-CH2F): in test [1], the IC50 stood at 3420 nM.
For the compound `CN[C@H](C(=O)N1CCC[C@H]1C(=O)N[C@@H](CCCNC(=N)N)C(=O)CF)C(C)C` [Compound 3] (H-[NMeV]-Pro-Arg-CH2F), in test [1], the IC50 was > 20000 nM. In addition, the “activity in the cell (proliferation) assay, in words” value in test [3] is “inactive”.
In the case of `CC(C)[C@H](NC(=O)c1ccccc1)C(=O)N1CCC[C@H]1C(=O)N[C@@H](CCCNC(=N)N)C(=O)CF` [Compound 19] (Bz-Val-Pro-Arg-CH2F), the IC50 in test [1] was 640 nM.
Take `N=C(N)NCCC[C@H](NC(=O)[C@@H]1CCCN1C(=O)C1(NC(=O)OCc2ccccc2)CCCC1)C(=O)CF` [Compound 38] (Cbz-[Ac5c]-Pro-Arg-CH2F): half-maximal inhibition in test [1] (IC50) was put at 5380 nM.
